Measured values from patent publication EP1103270B1, “TREATMENT OF AUTOIMMUNE DISEASES IN MAMMALS” (UNIVERSIDAD COMPLUTENSE DE MADRID, priority 1999, dated 2000).

Legend:
mRNA of TNFα = test: Northern Blot for mRNA of TNFα in macrophages activated with LPS; format: cell-based, rat; details: macrophages activated with LPS and exposed to the peptide; Figure 5
Procedure: (§1) • Figure 1 represents the production of TNFα by murine macrophages in culture (5x10^5 cells/ml) stimulated with 10ngr/ml of LPS in the presence or absence of 10^-8M of VIP or ACHPA during the course of 24 hours. • Figure 2 represents the production of TNFα by murine macrophages in culture (5x10^5 cells/ml) after 6 hours of culture with 10ngr/ml of LPS and to which 10^-8M of VIP or ACHPA are added at different times. • Figure 3 represents the production of IL-6 by murine macrophages in culture (5x10^5 cells/ml) stimulated with 10ngr/ml of LPS in the presence or absence of 10^-8M of VIP or ACHPA during the course of 24 hours. • Figure 4 represents the production of IL-6 by murine macrophages in culture (5x10^5 cells/ml) after 6 hours of culture with 10ngr/ml of LPS and to which 10^-8M of VIP or ACHPA are added at different times. • Figure 5 presents the Northern Blot analysis for the presence of mRNA of TNFα and IL-6 in macrophages stimulated with LPS in the presence or absence of VIP or ACHPA (18S represents the corresponding rRNA as total quality control of loaded RNA). • Figure 6 represents the survival in mice injected with 400µgr of LPS and, simultaneously, or after 30 minutes, 1 or 4 hours, with 5 nmol of VIP or ACHPA.
(§2) Macrophages from rat were submitted to the experimental conditions described in examples 1 and 3 and their mRNA was isolated. […]

anti-KLH antibodies = test: Isotype of serum anti-KLH antibodies (ELISA) in KLH-immunised mice; format: in vivo; details: 5 nmol/mouse with second KLH injection, serum two weeks after the last immunisation
[1] = Survival of mice injected with a lethal dose of LPS (endotoxic shock); format: in vivo; details: mice injected with 400µgr of LPS
Procedure: as §1
An experiment was carried out in which the long-term survival over a period of 4 days was studied for mice injected with 400µgr of LPS. […]

TNFα [2] = test: Production of TNFα in peritoneal murine macrophages stimulated with LPS, in vitro; format: cell-based
Procedure: as §1
In experiments carried out "in vitro" VIP and ACHPA inhibit the production of TNFα in peritoneal murine macrophages stimulated with LPS. […]

IL-6 [3] = test: Production of IL-6 in peritoneal murine macrophages stimulated with LPS, in vitro; format: cell-based
Procedure: In experiments carried out " in vitro" VIP and ACHPA inhibit the production of IL-6 in peritoneal murine macrophages stimulated with LPS. Most of the inhibition reaches values near to 90% and occurs with doses of stimulation of 10 µgr./ml of LPS. […] The inhibitory effect is also observed if the neuropeptides are added after stimulation with LPS, although the degree of inhibition is progressively smaller (see Figure 4).

IL-6 [4] = test: Circulating levels of IL-6 in mice after injection of LPS; format: in vivo; details: two hours after injection of 25 µgr. of LPS, simultaneous administration of 5nmol
Text: In an experiment carried out in mice the circulating levels of IL-6 two hours after injection of 25 µgr. of LPS were approximately 1.5 ngr./ml. The simultaneous administration of 5nmol of VIP or ACHPA reduced said levels by 60% and 75%, respectively.

mRNA of IL-6 = test: Northern Blot for mRNA of IL-6 in macrophages activated with LPS; format: cell-based, rat; details: macrophages activated with LPS and exposed to the peptide; Figure 5
Procedure: as §1, §2

TNFα [5] = test: Circulating levels of TNFα in mice after injection of LPS; format: in vivo; details: 2 hours after injection of 25 µgr of LPS, simultaneous administration of 5 nmol
Procedure: In an experiment carried out with mice the circulating levels of TNFα 2 hours after injection of 25 µgr of LPS were approximately 4 ngr./ml. Simultaneous administration of 5 nmol of VIP or ACHPA reduced said levels by 60%.

IL-4 producing cells = test: Number of IL-4 producing cells (ELISPOT) in spleen and peritoneum of KLH-immunised mice; format: in vivo; details: 5 nmol/mouse with second KLH injection, spleen and peritoneum cells two weeks later

adenylate cyclase hypophysary peptide activator [ACHPA]
transcripts for TNFα (Northern Blot) (mRNA of TNFα): absence of transcripts | isotype of anti-KLH antibodies detectable in serum (anti-KLH antibodies): only of the IgGl isotype | survival rates ([1]; administration up to 1 hour after injection with LPS): ~50% | survival at the end of the experiment ([1]; simultaneous administration of 5 nmol, period of 4 days): 60% | IC50 (TNFα [2]; peritoneal murine macrophages stimulated with LPS, read-out: IC50 (inhibition of the production of TNFα)): 0.08 nM | greatest degree of inhibition of the production of TNFα (TNFα [2]; peritoneal murine macrophages, stimulation with 1-10 ngr./ml of LPS): ~60% | IC50 (IL-6 [3]; peritoneal murine macrophages stimulated with LPS, read-out: IC50 (inhibition of the production of IL-6)): 0.0086 nM | inhibition of the production of IL-6 (most of the inhibition) (IL-6 [3]; peritoneal murine macrophages, stimulation with 10 µgr./ml of LPS): ~90% | reduction of circulating levels of IL-6 (IL-6 [4]): 75% | transcripts for IL-6 (Northern Blot) (mRNA of IL-6): absence of transcripts | reduction of circulating levels of TNFα (TNFα [5]): 60% | increase in the number of IL-4 producing cells compared to untreated mice (IL-4 producing cells): ~20 times
